The source of these data is patent publication US12011469B2, “Parenteral delivery device and methods of use” (Vireo Systems, Inc., priority 2017, dated 2024).

SMILES strings stand for the structures.

Experiment [1] deals with Candida albicans, ATTC number 10231. The experiment in a line: microbe, parasite or virus in culture. Conditions: read-out: zone of inhibition against the yeast, Candida albicans.
Protocol: Candida albicans, ATTC number 10231, was used as a test organism. Cultures of C. albicans were grown in a rotator overnight at room temperature in tubes of LB-broth. The cultures contained approximately 1×10^8 organisms per mL. The suspension was diluted 1:1000 in LB-broth and 50 microliters were spread on the surface of a LB-agar plate, i.e., approximately 5,000 organisms.
In another experiment the test system is Lactobacilli. Conditions: 60 mg hydrogen borate in well, LB-agar, overnight; Lactobacilli added one hour or 12 hours after hydrogen borate. The method, then: Lactobacillus capsular material (40 mg) was suspended in 1.0 milliliter of LB-broth and 25 microliters was spread on the surface of half of an LB-agar plate. For comparison, the other half of the plate spread with C. albicans. A hole was punched in the middle of the plate and 60 mg of hydrogen borate was added. The plates were incubated overnight and scored for growth and/or a zone of inhibition around the hydrogen borate well.
In some cases, only about a quarter of the LB-agar plate was spread with the L-capsular suspension in which case only 10 microliters was used.

The test system of experiment [2] is co-cultures of C. albicans and Lactobacilli. Conditions: Lactobacilli added dropwise immediately after C. albicans was spread onto the plate. An excerpt: In some cases, the C. albicans was co-cultured with the Lactobacilli. For this inoculum, equal volumes of the two suspensions of organisms described earlier were mixed and used to spread on LB-agar plates for testing for any effect of the co-culture on the anti-yeast activity of hydrogen borate or any effect on Lactobacillus growth.

Regarding `OB(O)O` [hydrogen borate], the zone of inhibition at 60000 µg/disc in experiment [1] turned out to be 45 mm. The “effect on the growth of Lactobacilli” value in the experiment with Lactobacilli is listed as “did not have an effect”. In addition, the “effect of co-culture on the anti-yeast activity of hydrogen borate” value in experiment [2] was “did not affect the activity”.

In general, zone of inhibition refers to the size of the clear area around the sample on an inoculated plate.
